Measurements from patent US20240287463A1, “INDUCIBLE TISSUE CONSTRUCTS AND USES THEREOF” (Massachusetts Institute of Technology, priority 2020, published 2024).

Experiments:
[1] = molecular target: T1, inducible caspase-9 (iCasp9) (Homo sapiens, UniProt P55211); assay: caspase-9 activation in CID-treated iCasp9-GFP J2 fibroblasts (antibody staining, Caspase-Glo 9); assay type: cell-based
T1 construct: #15567 pMSCV-F-del Casp9.IRES.GFP; host or cells: 3T3-J2 fibroblasts, lentivirally transduced
Description: Inducible caspase-9 (iCasp9), which is activated by treatment with a small molecule chemical inducer of dimerization (CID; also known as rapalog, an analog of rapamycin) and leads to subsequent cell death through the intrinsic apoptosis pathway was utilized (FIG. 1A). The safety and efficacy of the iCasp9 transgene and CID have previously been shown in vitro and in vivo in animals and humans (A. Di Stasi, et al. (2011) dx.doi.org/10.1056/NEJMoa1106152; T. Gargett and M. P. Brown (2014) Front. Pharmacol. 5; K. C. Straathof, et al. (2005) Blood 105, 4247, each of which is herein incorporated by this reference). To generate inducible cells, 3T3-J2 fibroblasts (‘J2’) were transduced with lentivirus with a bidirectional expression cassette encoding iCasp9 and GFP genes (#15567 pMSCV-F-del Casp9.IRES.GFP; cloned to a lentivirus plasmid backbone with an SFFV promoter). FACS was used to enrich the infected population for the 15% highest-expression GFP+ cells. […] To transfect J2s, virus was added to growth media and cultured overnight. iCasp9-GFP J2 fibroblasts at passage 22 were grown at confluence for 2 weeks to mimic experimental culture conditions, without a decrease in the percentage of the cell population with positive GFP expression. iCasp9-GFP J2s were plated in monolayer and dosed with ethanol vehicle or CID (B/B homodimerizer, AP20187; rapalog; Takara/ClonTech), and then assayed for cell viability using the CellTiter-Glo® Luminescent Cell Viability Assay (Promega), for caspase-9 activation using the CaspGLOW™ Fluorescein Active Caspase-9 Staining Kit (Thermo Fisher Scientific) and Caspase-Glo®9 Assay Systems (Promega), or stained with the Pacific Blue Annexin V/SYTOXTM AADvanced™ Apoptosis Kit (Thermo Fisher) to identify apoptotic cells by flow cytometry (>100,000 cells analyzed per condition).
After iCasp9-GFP J2 fibroblasts were exposed to CID, iCasp9 dimers were detected by staining with a caspase-9 antibody (FIG. 1C). […]

iCasp9-GFP J2s = assay: Annexin V / SYTOX apoptosis flow cytometry; assay type: cell-based; conditions: within the first hour after CID treatment
Description: Inducible caspase-9 (iCasp9), which is activated by treatment with a small molecule chemical inducer of dimerization (CID; also known as rapalog, an analog of rapamycin) and leads to subsequent cell death through the intrinsic apoptosis pathway was utilized (FIG. 1A). The safety and efficacy of the iCasp9 transgene and CID have previously been shown in vitro and in vivo in animals and humans (A. Di Stasi, et al. (2011) dx.doi.org/10.1056/NEJMoa1106152; T. Gargett and M. P. Brown (2014) Front. Pharmacol. 5; K. C. Straathof, et al. (2005) Blood 105, 4247, each of which is herein incorporated by this reference). To generate inducible cells, 3T3-J2 fibroblasts (‘J2’) were transduced with lentivirus with a bidirectional expression cassette encoding iCasp9 and GFP genes (#15567 pMSCV-F-del Casp9.IRES.GFP; cloned to a lentivirus plasmid backbone with an SFFV promoter). FACS was used to enrich the infected population for the 15% highest-expression GFP+ cells. […]
After iCasp9-GFP J2 fibroblasts were exposed to CID, iCasp9 dimers were detected by staining with a caspase-9 antibody (FIG. 1C). […] To confirm that CID-triggered caspase-9 activation led to apoptosis, unfixed cells were stained with Annexin V, which binds to an early indicator of apoptosis, and SYTOX, a general marker of cell death, and analyzed by flow cytometry.

T1 sequence (P55211 with tags, fused parts or gaps limits assumed): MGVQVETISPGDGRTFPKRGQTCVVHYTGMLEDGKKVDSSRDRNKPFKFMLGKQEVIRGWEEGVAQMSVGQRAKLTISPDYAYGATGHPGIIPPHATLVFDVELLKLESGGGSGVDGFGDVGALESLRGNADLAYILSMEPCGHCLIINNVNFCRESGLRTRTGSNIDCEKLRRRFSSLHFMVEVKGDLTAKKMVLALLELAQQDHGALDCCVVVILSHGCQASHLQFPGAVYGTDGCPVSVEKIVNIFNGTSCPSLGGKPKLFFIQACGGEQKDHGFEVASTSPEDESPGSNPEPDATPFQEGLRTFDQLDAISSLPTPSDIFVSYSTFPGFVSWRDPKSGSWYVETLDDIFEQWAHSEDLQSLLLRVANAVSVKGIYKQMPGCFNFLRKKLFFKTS

CC[C@H](C(=O)N1CCCC[C@H]1C(=O)O[C@H](CCc1ccc(OC)c(OC)c1)c1cccc(OCC(=O)NCC(CNC(=O)COc2cccc([C@@H](CCc3ccc(OC)c(OC)c3)OC(=O)[C@@H]3CCCCN3C(=O)[C@@H](CC)c3cc(OC)c(OC)c(OC)c3)c2)CN(C)C)c1)c1cc(OC)c(OC)c(OC)c1 [CID, AP20187]
Caspase-9 staining ([1]; 50 nM CID, collected 15 and 30 minutes after treatment): increased
caspase-9 cleavage compared to wild-type J2s ([1]; 15 minutes after CID dosing): 16 fold
caspase-9 cleavage compared to wild-type J2s ([1]; 30 minutes after CID dosing): 18 fold
proportion of iCasp9-GFP J2s undergoing apoptosis (iCasp9-GFP J2s): increased in a time-dependent manner
